Data published in patent US10035790B2, “RORγ modulators” (BRISTOL-MYERS SQUIBB COMPANY, priority 2012, dated 2018).

Molecular target: T1, ligand binding domain of human RORγ (A262-S507) (Homo sapiens, UniProt P51449)
T1 construct: made in house; host or cells: E. coli
T1 sequence (P51449 262-507): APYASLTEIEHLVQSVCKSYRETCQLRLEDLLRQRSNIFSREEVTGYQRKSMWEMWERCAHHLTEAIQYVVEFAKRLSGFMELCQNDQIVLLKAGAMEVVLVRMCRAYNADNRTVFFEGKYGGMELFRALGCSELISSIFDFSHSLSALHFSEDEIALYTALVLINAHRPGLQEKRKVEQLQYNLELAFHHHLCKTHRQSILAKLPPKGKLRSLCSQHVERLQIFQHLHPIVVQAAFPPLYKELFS
Assay: General RORγ SPA binding assay (competition with [3H]25-hydroxycholesterol)
Details: RORγ SPA binding assay, inhibition of [3H]25-hydroxycholesterol binding; read-out: IC50
Procedure, shortened: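 Step one: compound meets 50 nM nickel-purified, His-tagged protein from E. coli for 15 min at room temperature (PBS, 0.5% fatty acid free BSA). Step two: radioligand is added for another 15 min. Step three: SPA beads are added for 30 min before scintillation reading and IC50 fitting.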

Row | SMILES | IC50
1 | Cc1nc(N)nc(C2CCN(C(=O)Oc3c(F)cccc3F)CC2)c1-c1nnc(-c2ccnc(C(F)(F)F)n2)o1 [Compound C50, 2,6-Difluorophenyl 4-(2-amino-6-methyl-5-{5-[2-(trifluoromethyl)pyrimidin-4-yl]-1,3,4-oxadiazol-2-yl}pyrimidin-4-yl)piperidine-1-carboxylate] | 6.1 nM
2 | Cc1nc(N)nc(C2CCN(C(=O)Oc3ccccc3Cl)CC2)c1-c1nnc(-c2ccnc(C(F)(F)F)n2)o1 [Compound C51, 2-Chlorophenyl 4-(2-amino-6-methyl-5-{5-[2-(trifluoromethyl)pyrimidin-4-yl]-1,3,4-oxadiazol-2-yl}pyrimidin-4-yl)piperidine-1-carboxylate] | 10.5 nM
3 | Cc1nc(N)nc(C2CCN(C(=O)Oc3ccccc3F)CC2)c1-c1nnc(-c2ccnc(C(F)(F)F)n2)o1 [Compound C52, 2-Fluorophenyl 4-(2-amino-6-methyl-5-{5-[2-(trifluoromethyl)pyrimidin-4-yl]-1,3,4-oxadiazol-2-yl}pyrimidin-4-yl)piperidine-1-carboxylate] | 8.7 nM
4 | Cc1nc(N)nc(C2CCN(C(=O)Oc3ccc(F)cc3)CC2)c1-c1nnc(-c2ccnc(C(F)(F)F)n2)o1 [Compound C53, 4-Fluorophenyl 4-(2-amino-6-methyl-5-{5-[2-(trifluoromethyl)pyrimidin-4-yl]-1,3,4-oxadiazol-2-yl}pyrimidin-4-yl)piperidine-1-carboxylate] | 37.3 nM
5 | Cc1nc(N)nc(C2CCN(C(=O)Oc3cc(F)ccc3F)CC2)c1-c1nnc(-c2ccnc(C(F)(F)F)n2)o1 [Compound C54, 2,5-Difluorophenyl 4-(2-amino-6-methyl-5-{5-[2-(trifluoromethyl)pyrimidin-4-yl]-1,3,4-oxadiazol-2-yl}pyrimidin-4-yl)piperidine-1-carboxylate] | 21.1 nM
6 | Cc1nc(N)nc(C2CCN(C(=O)Oc3cccc(F)c3)CC2)c1-c1nnc(-c2ccnc(C(F)(F)F)n2)o1 [Compound C55, 3-Fluorophenyl 4-(2-amino-6-methyl-5-{5-[2-(trifluoromethyl)pyrimidin-4-yl]-1,3,4-oxadiazol-2-yl}pyrimidin-4-yl)piperidine-1-carboxylate] | 19.2 nM
7 | Cc1nc(N)nc(C2CCN(C(=O)Oc3ccc(F)cc3F)CC2)c1-c1nnc(-c2ccnc(C(F)(F)F)n2)o1 [Compound C56, 2,4-Difluorophenyl 4-(2-amino-6-methyl-5-{5-[2-(trifluoromethyl)pyrimidin-4-yl]-1,3,4-oxadiazol-2-yl}pyrimidin-4-yl)piperidine-1-carboxylate] | 24.7 nM
8 | COc1ccccc1OC(=O)N1CCC(c2nc(N)nc(C)c2-c2nnc(-c3ccnc(C(F)(F)F)n3)o2)CC1 [Compound C57, 2-(methyloxy)phenyl 4-(2-amino-6-methyl-5-{5-[2-(trifluoromethyl)pyrimidin-4-yl]-1,3,4-oxadiazol-2-yl}pyrimidin-4-yl)piperidine-1-carboxylate] | 23.6 nM
9 | CSc1nc(C)c(-c2nnc(-c3cccc(C(F)(F)F)n3)o2)c(C2CCN(C(=O)Nc3c(F)cccc3F)CC2)n1 [Compound C58, N-(2,6-Difluorophenyl)-4-[6-methyl-2-(methylthio)-5-{5-[6-(trifluoromethyl)pyridin-2-yl]-1,3,4-oxadiazol-2-yl}pyrimidin-4-yl]piperidine-1-carboxamide] | 14.1 nM
10 | Cc1nc(N)nc(C2CCN(C(=O)Nc3c(F)cccc3F)CC2)c1-c1nnc(-c2cccc(C(F)(F)F)n2)o1 [Compound C59, 4-(2-Amino-6-methyl-5-{5-[6-(trifluoromethyl)pyridin-2-yl]-1,3,4-oxadiazol-2-yl}pyrimidin-4-yl)-N-(2,6-difluorophenyl)piperidine-1-carboxamide] | 27.9 nM
11 | COc1nc(C)c(-c2nnc(-c3cccc(C(F)(F)F)n3)o2)c(C2CCN(C(=O)Nc3c(F)cccc3F)CC2)n1 [Compound C60, N-(2,6-Difluorophenyl)-4-[6-methyl-2-(methyloxy)-5-{5-[6-(trifluoromethyl)pyridin-2-yl]-1,3,4-oxadiazol-2-yl}pyrimidin-4-yl]piperidine-1-carboxamide] | 204 nM
12 | COc1nc(C)c(-c2nnc(-c3ccnc(C(F)(F)F)n3)o2)c(C2CCN(C(=O)Nc3c(F)cccc3F)CC2)n1 [Compound C61, N-(2,6-Difluorophenyl)-4-[6-methyl-2-(methyloxy)-5-{5-[2-(trifluoromethyl)pyrimidin-4-yl]-1,3,4-oxadiazol-2-yl}pyrimidin-4-yl]piperidine-1-carboxamide] | 1140 nM
13 | Cc1ncc(-c2nnc(-c3ccnc(C(F)(F)F)n3)o2)c(C2CCN(C(=O)Cc3c(F)cccc3F)CC2)n1 [Compound C62, 4-{1-[(2,6-difluorophenyl)acetyl]piperidin-4-yl}-2-methyl-5-{5-[2-(trifluoromethyl)pyrimidin-4-yl]-1,3,4-oxadiazol-2-yl}pyrimidine] | 157 nM
14 | Cc1nc(C)c(-c2nc(-c3cccc(C(F)(F)F)c3)no2)c(C2CCN(C(=O)Nc3c(F)cccc3F)CC2)n1 [Compound C63, N-(2,6-difluorophenyl)-4-(2,6-dimethyl-5-{3-[3-(trifluoromethyl)phenyl]-1,2,4-oxadiazol-5-yl}pyrimidin-4-yl)piperidine-1-carboxamide] | 281 nM
15 | Cc1nc(C)c(-c2nc(-c3cccc(C(F)(F)F)c3)no2)c(C2CCN(C(=O)Nc3c(F)cccc3C(F)(F)F)CC2)n1 [Compound C64, 4-(2,6-Dimethyl-5-{3-[3-(trifluoromethyl)phenyl]-1,2,4-oxadiazol-5-yl}pyrimidin-4-yl)-N-[2-fluoro-6-(trifluoromethyl)phenyl]piperidine-1-carboxamide] | 183 nM
16 | Cc1nc(C)c(-c2nc(-c3cccc(C(F)(F)F)c3)no2)c(C2CCN(C(=O)c3c(F)cccc3F)CC2)n1 [Compound C65, 4-{1-[(2,6-Difluorophenyl)carbonyl]piperidin-4-yl}-2,6-dimethyl-5-{3-[3-(trifluoromethyl)phenyl]-1,2,4-oxadiazol-5-yl}pyrimidine] | 2730 nM
17 | Cc1nc(C)c(-c2ncc(-c3cccc(Cl)c3)o2)c(C2CCN(C(=O)Cc3c(F)cccc3F)CC2)n1 [Compound C66, 5-[5-(3-Chlorophenyl)-1,3-oxazol-2-yl]-4-{1-[(2,6-difluorophenyl)acetyl]piperidin-4-yl}-2,6-dimethylpyrimidine] | 65.9 nM
18 | Cc1nc(C)c(-c2ncc(-c3cccc(Cl)c3)o2)c(C2CCN(C(=O)Nc3c(F)cccc3F)CC2)n1 [Compound C67, 4-{5-[5-(3-Chlorophenyl)-1,3-oxazol-2-yl]-2,6-dimethylpyrimidin-4-yl}-N-(2,6-difluorophenyl)piperidine-1-carboxamide] | 111 nM
19 | Cc1nc(C)c(-c2ncc(-c3ccnc(C(F)(F)F)n3)o2)c(C2CCN(C(=O)Nc3c(F)cccc3F)CC2)n1 [Compound C68, N-(2,6-Difluorophenyl)-4-(2,6-dimethyl-5-{5-[2-(trifluoromethyl)pyrimidin-4-yl]-1,3-oxazol-2-yl}pyrimidin-4-yl)piperidine-1-carboxamide] | 102 nM
20 | Cc1nc(N)nc(C2CCN(C(=O)Nc3c(F)cccc3F)CC2)c1-c1ncc(-c2ccnc(C(F)(F)F)n2)o1 [Compound C69, 4-(2-amino-6-methyl-5-{5-[2-(trifluoromethyl)pyrimidin-4-yl]-1,3-oxazol-2-yl}pyrimidin-4-yl)-N-(2,6-difluorophenyl)piperidine-1-carboxamide] | 30.8 nM
21 | Cc1nc(N)nc(C2CCN(C(=O)Nc3c(F)cccc3F)CC2)c1-c1cnc(-c2ccnc(C(F)(F)F)n2)o1 [Compound C70, 4-(2-Amino-6-methyl-5-{2-[2-(trifluoromethyl)pyrimidin-4-yl]-1,3-oxazol-5-yl}pyrimidin-4-yl)-N-(2,6-difluorophenyl)piperidine-1-carboxamide] | 108 nM
22 | Cc1nc(N)nc(C2CCN(C(=O)Nc3ccccc3Cl)CC2)c1-c1nnc(-c2ccnc(C(F)(F)F)n2)o1 [Compound C71, 4-(2-Amino-6-methyl-5-{5-[2-(trifluoromethyl)pyrimidin-4-yl]-1,3,4-oxadiazol-2-yl}pyrimidin-4-yl)-N-(2-chlorophenyl)piperidine-1-carboxamide] | 30.2 nM
23 | Cc1ncc(C(C)(O)CNc2cccc(Cl)c2)c(C2CCN(C(=O)Cc3c(F)cccc3F)CC2)n1 (centres unmarked) [Compound D1, 1-(4-(5-(1-(3-Chlorophenylamino)-2-hydroxypropan-2-yl)-2-methylpyrimidin-4-yl)piperidin-1-yl)-2-(2,6-difluorophenyl)ethanone] | 2.6 nM
24 | Cc1ncc(C(C)(O)CNc2cccc(C(F)(F)F)n2)c(C2CCN(C(=O)Cc3c(F)cccc3F)CC2)n1 (centres unmarked) [Compound D2, 2-(2,6-difluorophenyl)-1-(4-(5-(2-hydroxy-1-((6-(trifluoromethyl)pyridin-2-yl)amino)propan-2-yl)-2-methylpyrimidin-4-yl)piperidin-1-yl)ethanone] | 3.9 nM
25 | Cc1cc(C)cc(NCC(C)(O)c2cnc(C)nc2C2CCN(C(=O)Cc3c(F)cccc3F)CC2)c1 (centres unmarked) [Compound D3, 2-(2,6-difluorophenyl)-1-(4-(5-(1-((3,5-dimethylphenyl)amino)-2-hydroxypropan-2-yl)-2-methylpyrimidin-4-yl)piperidin-1-yl)ethanone] | 5 nM
26 | Cc1ncc(C(C)(O)CNc2cccc(C(F)(F)F)c2)c(C2CCN(C(=O)Cc3c(F)cccc3F)CC2)n1 (centres unmarked) [Compound D4, 2-(2,6-difluorophenyl)-1-(4-(5-(2-hydroxy-1-((3-(trifluoromethyl)phenyl)amino)propan-2-yl)-2-methylpyrimidin-4-yl)piperidin-1-yl)ethanone] | 6.1 nM
